Test results published in patent US20060069132A1, “Azolecarboxamide herbicides” (priority 2004, published 2006).
Where two headings read alike, the source gives them in different places.

Key:
[1] = test system: yellow nutsedge; test: Test C pre-/postemergence herbicide test; assay type: in vivo, Cyperus esculentus; details: for Plant response rating (0 = no effect, 100 = complete control), Nutsedge, Yellow: 62 g ai/ha
How it was run: (§1)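 Pre/post spray; non-phytotoxic solvent + surfactant. Post-timing 1–4 leaves, 2–18 cm. Read-out: visual % control vs untreated, day 12–14, greenhouse.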

[2] = test system: kochia; test: Test C pre-/postemergence herbicide test; assay type: in vivo, Kochia scoparia; details: for Plant response rating (0 = no effect, 100 = complete control), Kochia: 62 g ai/ha; for Kochia plant response rating: Preemergence, 500 g ai/ha, scale 0 to 100, 0 no effect, 100 complete control
How it was run: as §1

[3] = test system: cocklebur; test: Test C pre-/postemergence herbicide test; assay type: in vivo, Xanthium strumarium; details: for Plant response rating (0 = no effect, 100 = complete control), Cocklebur: 62 g ai/ha; for Plant response rating (0 = no effect, 100 = complete control), Cocklebur / Plant response rating, Cocklebur: preemergence
How it was run: as §1

[4] = test system: barnyardgrass; test: Test C flooded paddy test; assay type: in vivo, Echinochloa crus-galli
How it was run: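 Postemergence sprays applied to plants 2 to 18 cm tall (1- to 4-leaf stage); paddy species grown to 2-leaf stage under flooding. After 12 to 14 days in greenhouse, visual rating versus untreated controls on 0–100 scale (0 no effect, 100 complete control).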

[5] = test system: giant foxtail; test: Test A pre-/postemergence herbicide test; assay type: in vivo, Setaria faberi; details: for pest or weed control at 500 g/ha / pest or weed control at 2000 g/ha: Setaria faberi, 240 h
How it was run: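 Greenhouse injury scoring (0–100, complete control = 100) at approximately ten days follows simultaneous pre- and postemergence application. Soil received a directed spray after seeding; seedlings of 2–10 cm at the one- to two-leaf stage were sprayed to runoff.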

[6] = test system: pigweed; test: Test C pre-/postemergence herbicide test; assay type: in vivo, Amaranthus retroflexus; details: for Plant response rating (0 = no effect, 100 = complete control), Pigweed: 62 g ai/ha; for Pigweed plant response rating: Preemergence, 500 g ai/ha, scale 0 to 100, 0 no effect, 100 complete control
How it was run: as §1

[7] = test system: giant foxtail; test: Test B pre-/postemergence herbicide test; assay type: in vivo, Setaria faberi
How it was run: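 Evaluation is visual, comparing treated with control plants on a scale where 0 means no effect and 100 means full control. Treatments were preemergence, or postemergence on seedlings 2–18 cm tall, and held 13–15 days in the greenhouse.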

[8] = test system: corn; test: Test C pre-/postemergence herbicide test; assay type: in vivo, Zea mays; details: for Plant response rating (0 = no effect, 100 = complete control), Corn: 62 g ai/ha; for Plant response rating (0 = no effect, 100 = complete control), Corn / Plant response rating, Corn: preemergence; for Corn plant response rating: Preemergence, 500 g ai/ha, scale 0 to 100, 0 no effect, 100 complete control
How it was run: as §1

[9] = test system: ducksalad; test: Test C flooded paddy test; assay type: in vivo, Heteranthera limosa
[10] = 125 g ai/ha, scale 0 (no effect) to 100 (complete control), visual, 12 to 14 days, preemergence
[11] = Preemergence, 500 g ai/ha, scale 0 to 100, 0 no effect, 100 complete control
[12] = 125 g ai/ha, scale 0 (no effect) to 100 (complete control), visual, 12 to 14 days
[13] = 250 g ai/ha, scale 0 to 100 (0 no effect, 100 complete control), visual, 12 to 14 days
[14] = 62 g ai/ha, scale 0 to 100 (0 no effect, 100 complete control)
[15] = 125 g ai/ha, scale of 0 to 100, 0 is no effect, 100 is complete control
[16] = 250 g ai/ha, scale of 0 to 100, 0 is no effect, 100 is complete control
[17] = 500 g ai/ha, visual rating after 12 to 14 days, scale 0 to 100 (0 no effect, 100 complete control)

CCNC(=O)c1ccc(F)c(NC(=O)c2cc(C(C)(C)C)nn2CC)c1 [Compound 2, 3-(1,1-dimethylethyl)-1-ethyl-N-[5-[(ethylamino)carbonyl]-2-fluorophenyl]-1H-pyrazole-5-carboxamide]
Plant response rating (0 = no effect, 100 = complete control), Nutsedge, Yellow ([1]; preemergence): 30
pest or weed control at 250 g/ha ([1]; Cyperus, pre-emergence, 250 g ai/ha, scale 0 to 100 (0 no effect, 100 complete control), visual, 12 to 14 days, read-out: Plant response rating, Nutsedge, Yellow): 90%
Plant response rating (0 = no effect, 100 = complete control), Kochia ([2]; preemergence): 100
pest or weed control at 125 g/ha ([2]; Bassia scoparia, pre-emergence, 125 g ai/ha, scale 0-100, read-out: Plant response rating, Kochia): 100%
pest or weed control at 250 g/ha ([2]; Bassia scoparia, pre-emergence, 250 g ai/ha, scale 0 to 100 (0 no effect, 100 complete control), visual, 12 to 14 days, read-out: Plant response rating, Kochia): 100%
Kochia plant response rating [2]: 100
Plant response rating (0 = no effect, 100 = complete control), Cocklebur [3]: 5
pest or weed control at 125 g/ha ([3]; Xanthium strumarium, pre-emergence, 312 h, 125 g ai/ha, scale 0-100, read-out: Plant response rating, Cocklebur): 5%
pest or weed control at 250 g/ha ([3]; Xanthium strumarium, pre-emergence, 312 h, 250 g ai/ha, scale 0 to 100 (0 no effect, 100 complete control), visual, 12 to 14 days, read-out: Plant response rating, Cocklebur): 65%
pest or weed control at 500 g/ha ([3]; Xanthium strumarium, pre-emergence, 312 h, Preemergence, 500 g ai/ha, scale 0 to 100, 0 no effect, 100 complete control, read-out: Cocklebur plant response rating): 80%
pest or weed control at 62 g/ha ([4]; Echinochloa crus-galli, 62 g ai/ha, scale 0 to 100 (0 no effect, 100 complete control), read-out: Barnyardgrass plant response rating): 15%
pest or weed control at 125 g/ha ([4]; Echinochloa crus-galli, 125 g ai/ha, scale of 0 to 100, 0 is no effect, 100 is complete control, read-out: Barnyardgrass plant response rating): 75%
pest or weed control at 250 g/ha ([4]; Echinochloa crus-galli, 250 g ai/ha, visual rating after 12 to 14 days, scale 0 to 100 (0 no effect, 100 complete control), read-out: Plant response rating, Barnyardgrass): 75%
pest or weed control at 500 g/ha ([4]; Echinochloa crus-galli, 500 g ai/ha, visual rating after 12 to 14 days, scale 0 to 100 (0 no effect, 100 complete control), read-out: Plant response rating, Barnyardgrass): 90%
pest or weed control at 500 g/ha ([5]; post-emergence, Postemergence, 500 g ai/ha, 0 to 100 scale, 0 no effect, 100 complete control, read-out: Plant response rating, Foxtail, Giant): 95%
pest or weed control at 2000 g/ha ([5]; post-emergence, Postemergence, 2000 g ai/ha, 0 to 100 scale, 0 no effect, 100 complete control, read-out: Plant response rating, Foxtail, Giant): 100%
pest or weed control at 500 g/ha ([5]; pre-emergence, Preemergence, 500 g ai/ha, visual rating, 0 to 100 scale (0 no effect, 100 complete control), read-out: Foxtail, Giant plant response rating): 100%
pest or weed control at 2000 g/ha ([5]; pre-emergence, Preemergence, 2000 g ai/ha, 0 to 100 scale, 0 no effect, 100 complete control, read-out: Foxtail, Giant plant response rating): 100%
Plant response rating (0 = no effect, 100 = complete control), Pigweed ([6]; preemergence): 95
pest or weed control at 250 g/ha ([6]; Amaranthus retroflexus, pre-emergence, 250 g ai/ha, scale 0 to 100 (0 no effect, 100 complete control), visual, 12 to 14 days, read-out: Plant response rating, Pigweed): 95%
Pigweed plant response rating [6]: 100
pest or weed control at 125 g/ha ([7]; Setaria faberi, post-emergence, 336 h, Postemergence, 125 g ai/ha, scale 0 (no effect) to 100 (complete control), read-out: Foxtail, Giant plant response rating): 30%
pest or weed control at 500 g/ha ([7]; Setaria faberi, post-emergence, 336 h, Postemergence, 500 g ai/ha, visual rating after 13 to 15 days, scale 0 (no effect) to 100 (complete control), read-out: Plant response rating, Foxtail, Giant): 30%
pest or weed control at 500 g/ha ([7]; Setaria faberi, pre-emergence, 336 h, Preemergence, 500 g ai/ha, scale 0 to 100, read-out: Foxtail, Giant plant response rating): 100%
Plant response rating (0 = no effect, 100 = complete control), Corn [8]: 0
Corn plant response rating [8]: 60
Corn plant response rating (crop injury, 0 = no effect, 100 = complete kill) at 125 g/ha ([8]; Zea mays, pre-emergence, 312 h, 125 g ai/ha, scale 0-100): 30%
Corn plant response rating (crop injury, 0 = no effect, 100 = complete kill) at 250 g/ha ([8]; Zea mays, pre-emergence, 312 h, 250 g ai/ha, scale 0 to 100 (0 no effect, 100 complete control), visual, 12 to 14 days): 35%
pest or weed control at 62 g/ha ([9]; Heteranthera limosa, 62 g ai/ha, scale 0 to 100 (0 no effect, 100 complete control), read-out: Ducksalad plant response rating): 80%
pest or weed control at 125 g/ha ([9]; Heteranthera limosa, 125 g ai/ha, scale of 0 to 100, 0 is no effect, 100 is complete control, read-out: Ducksalad plant response rating): 80%
pest or weed control at 250 g/ha ([9]; Heteranthera limosa, 250 g ai/ha, visual rating after 12 to 14 days, scale 0 to 100 (0 no effect, 100 complete control), read-out: Plant response rating, Ducksalad): 85%
pest or weed control at 500 g/ha ([9]; Heteranthera limosa, 500 g ai/ha, visual rating after 12 to 14 days, scale 0 to 100 (0 no effect, 100 complete control), read-out: Plant response rating, Ducksalad): 95%

CCn1nc(C(C)(C)C)cc1C(=O)Nc1cccc2c1CCN(C1CC1)C2=O [Compound 64]
Plant response rating (0 = no effect, 100 = complete control), Nutsedge, Yellow ([1]; preemergence): 0
Plant response rating, Nutsedge, Yellow [1, 10]: 0
Nutsedge, Yellow plant response rating [1, 11]: 0
Plant response rating (0 = no effect, 100 = complete control), Kochia ([2]; preemergence): 0
Plant response rating, Kochia [2, 10]: 20
Kochia plant response rating [2]: 60
Plant response rating (0 = no effect, 100 = complete control), Cocklebur [3]: 0
Plant response rating, Cocklebur [3, 12]: 0
Plant response rating, Cocklebur [3, 13]: 0
Cocklebur plant response rating [3, 11]: 0
Barnyardgrass plant response rating [4, 14]: 0
Barnyardgrass plant response rating [4, 15]: 0
Barnyardgrass plant response rating [4, 16]: 0
Plant response rating, Barnyardgrass [4, 17]: 35
Plant response rating, Foxtail, Giant ([5]; Postemergence, 500 g ai/ha, 0 to 100 scale, 0 no effect, 100 complete control): 30
Plant response rating, Foxtail, Giant ([5]; Postemergence, 2000 g ai/ha, 0 to 100 scale, 0 no effect, 100 complete control): 55
Foxtail, Giant plant response rating ([5]; Preemergence, 500 g ai/ha, visual rating, 0 to 100 scale (0 no effect, 100 complete control)): 40
Foxtail, Giant plant response rating ([5]; Preemergence, 2000 g ai/ha, 0 to 100 scale, 0 no effect, 100 complete control): 90
Plant response rating (0 = no effect, 100 = complete control), Pigweed ([6]; preemergence): 30
Plant response rating, Pigweed [6, 10]: 70
Pigweed plant response rating [6]: 100
Plant response rating, Foxtail, Giant ([7]; Postemergence, 500 g ai/ha, visual rating after 13 to 15 days, scale 0 (no effect) to 100 (complete control)): 10
Foxtail, Giant plant response rating ([7]; Preemergence, 500 g ai/ha, scale 0 to 100): 100
Foxtail, Giant plant response rating ([7]; postemergence, 125 g ai/ha, visual rating, scale 0 (no effect) to 100 (complete control)): 10
Plant response rating, Foxtail, Giant ([7]; preemergence, 125 g ai/ha, 0 to 100 scale, 0 is no effect, 100 is complete control): 10
Plant response rating (0 = no effect, 100 = complete control), Corn [8]: 0
Plant response rating, Corn [8, 12]: 0
Plant response rating, Corn [8, 13]: 0
Corn plant response rating [8]: 30
Ducksalad plant response rating [9, 14]: 0
Ducksalad plant response rating [9, 15]: 10
Ducksalad plant response rating [9, 16]: 25
Plant response rating, Ducksalad [9, 17]: 40
